Assay results: article PMC9697446 (International Journal of Molecular Sciences, 2022)

Key:
porcine liver CES = assay: CES inhibition (4-nitrophenyl acetate hydrolysis); type: biochemical; settings: ± SEM, n = 3;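 note: values are percent inhibition of CES activity not residual activity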
Experimental: (§1) The esterase profile was estimated using the human erythrocyteAChE, the equine serum BChE, and the porcine liver CES.
(§2) Human erythrocyte AChE, equine serum BChE, porcine liver CES, acetylthiocholine iodide (ATCh), butyrylthiocholine iodide (BTCh), 5,5′-dithio-bis-(2-nitrobenzoic acid) (DTNB), 4-nitrophenol acetate (4-NPA), and BNPP were purchased from Sigma-Aldrich (St. Louis, MO, USA).
The assay solution consisted of 0.1 M K/Na phosphate buffer pH 8.0, 25 °C, with the addition of 1 mM 4-nitrophenyl acetate and 0.02 unit/mL of CES. The assays were carried out with a blank containing all components, except CES.
(§3) The test compounds were dissolved in DMSO, and the incubation mixture contained 2% (v/v) of the solvent. Enzyme inhibition was first assessed at a single concentration of 20 µM for each compound after a 5 min incubation at 25 °C in three separate experiments. […] The test compounds were added to the assay solution and preincubated at 25 °C with the enzymes for 5 min, followed by the addition of substrate. A parallel control was made for the assay solution with no inhibitor. Measurements were performed with a FLUOStar Optima microplate reader (BMG Labtech, Ortenberg, Germany). Each experiment was performed in triplicate. The results were expressed as the mean ± SEM. The reaction rates in the presence and absence of the inhibitor were compared, and the percent of residual enzyme activity due to the presence of test compounds was calculated.

[1] = ABTS radical cation scavenging assay; settings: 1 h incubation, means ± SEM (n = 3); for IC50: 50% reduction of ABTS radical; for ABTS Scavenging Activity, TEAC Value: Trolox equivalent antioxidant capacity
Experimental: The ABTS assay is based on the direct binding of a model ABTS radical cation (2,2′-azino-bis-(3-ethylbenzothiazoline-6-sulfonate), ABTS^•+) by antioxidants. The measurements were performed as previously described in detail.
The radical scavenging activity was expressed as TEAC values (Trolox equivalent antioxidant capacity) and determined as the ratio between the slopes obtained from the linear correlation of the ABTS radical absorbance with the concentrations of the test compounds and Trolox.
The radical scavenging activity of the compounds was assessed using an ABTS radical decolorization assay. The procedure followed the reported protocol with minor modifications. ABTS (2,2ʹ-azino-bis-(3-ethylbenzothiazoline-6-sulfonic acid) diammonium salt) was purchased from TCI (Tokyo, Japan), while potassium persulfate (di-potassium peroxodisulfate), Trolox (6-hydroxy-2,5,7,8-tetramethylchroman-2-carboxylic acid), catechol, and DMSO were received from Sigma-Aldrich Chemical Co. (St. Louis, MO, USA). The ethanol was HPLC grade. Aqueous solutions were prepared using deionized water.
Trolox was used as the standard reference compound. Catechol was used as the positive control. All test and reference compounds were dissolved in DMSO. The final concentration of DMSO in the reaction mixture was 4% (v/v).
The solution of ABTS radical cation (ABTS^•+) was produced by mixing a 7 mM ABTS stock solution with a 2.45 mM aqueous solution of potassium persulfate in equal quantities and allowing them to react for 12–16 h at room temperature in the dark. At the time of activity determination, the ABTS^•+ solution was diluted with ethanol to adjust it to an absorbance value of about 0.80 ± 0.05 at 734 nm. A fresh working solution of ABTS^•+ was prepared for each assay.
The radical scavenging capacity of the compounds was analyzed by mixing 10 μL of test compound with 240 μL of ABTS^•+ working solution. The reduction in absorbance was measured spectrophotometrically at 734 nm using an xMark microplate UV/VIS spectrophotometer (Bio-Rad, Hercules, CA, USA). The reaction was monitored for an hour at 10 min intervals. Data were given for 1 h of incubation of compounds with ABTS^•+. EtOH blanks were run in each assay. The results were obtained from three replicates of each sample and three independent experiments.
The antioxidant capacity as a Trolox equivalent (TEAC values) was determined as the ratio between the slopes obtained from the linear correlation of concentrations of test compounds and Trolox with absorbance of ABTS radical.

[2] = Oxygen radical absorbance capacity assay (ORAC-FL); settings: Trolox equivalent, Trolox = 1; means ± SEM (n = 3)
Text: The method is based on the measurement of the fluorescence intensity characterizing the degree of destruction of the fluorescence probe under the action of peroxyl radicals.
The peroxyl radical scavenging capacity of the test compounds was characterized in terms of the Trolox equivalent (TE), which is equal to the ratio of the Trolox concentration to the concentration of a test compound when they show equal fluorescence intensities in the assay. The peroxyl radical scavenging capacity of Trolox was set as 1 [67, 68].
2,2´-Azobis(amidinopropane) dihydrochloride (AAPH), (±)-6-hydroxy-2,5,7,8-tetramethylchroman-2-carboxylic acid (Trolox), and fluorescein (FL) were purchased from Sigma-Aldrich. The reaction was carried out at 37 °C in 75 mM K,Na phosphate buffer (pH 7.4), and the final reaction mixture was 200 µL. The test compounds and the Trolox standard were dissolved in DMSO to 10 mM and further diluted in a 75 mM K,Na phosphate buffer (pH 7.4). The final concentrations were 0.1–1 µM for the test compounds and 1–6 µM for the Trolox. The blank was composed of 20 µL of a 75 mM K,Na phosphate buffer (pH 7.4) containing 20% (v/v) DMSO, 120 µL of FL and 60 µL of AAPH, and it was added in each assay. The antioxidant (20 µL) and FL (120 µL, final concentration: 70 nM) solutions were placed in a black 96-well microplate and were preincubated for 15 min at 37 °C. A solution of AAPH (60 µL, final concentration: 12 mM) was then added rapidly using a multichannel pipette. The microplate was immediately placed in the reader, and the fluorescence was recorded every minute for 100 min. The microplate was automatically shaken prior to each reading. The Trolox standard curve was also obtained in each assay. All reactions were carried out in triplicate, and at least three different assays were performed for each sample.
The antioxidant curves (fluorescence vs. time) were first normalized to the curve of the blank (without the antioxidant) corresponding to the same assay, and the area under the fluorescence decay curve (AUC) was calculated. The net AUC corresponding to a sample was calculated by subtracting the AUC corresponding to the blank. Regression equations were calculated by plotting the net AUC against the antioxidant concentration. The ORAC Tolox equivalent value (TE) was obtained by dividing the slope of the latter curve by the slope of the Trolox curve obtained in the same assay. The ability of Trolox to scavenge the peroxyl radical was equal to 1 [64, 65]. […] The data are expressed as means ± SEM.

equine serum BChE = target: T1, equine serum BChE (Equus caballus, UniProt P81908); assay: biochemical; settings: IC50 ± SEM, n = 3
T1 construct: the equine serum BChE, and the porcine liver CES; purchased Sigma-Aldrich; host or cells: equine serum
Experimental: as §1, §2
(§4) AChE and BChE activities were measured via the Ellman method. The assay solution consisted of 0.1 M K/Na phosphate buffer pH 7.5, 25 °C with the addition of 0.33 mM DTNB, 0.02 unit/mL of AChE or BChE and 1 mM of substrate (ATCh or BTCh, respectively). The assays were carried out with a reagent blank containing all components (except AChE orBChE) in order to account for the non-enzymatic hydrolysis of the substrate. In addition, an enzyme blank was included that contained all components except substrate to account for non-substrate sulfhydryl groups.
as §3

human erythrocyte AChE = target: T2, human erythrocyte AChE (Homo sapiens, UniProt P22303); assay: biochemical; settings: IC50 ± SEM, n = 3
T2 construct: The esterase profile was estimated using the human erythrocyteAChE; purchased Sigma-Aldrich; host or cells: human erythrocytes
Experimental: as §1, §2, §4, §3

EeAChE = target: T3, EeAChE (Electrophorus electricus, UniProt O42275); assay: biochemical; settings: means ± SEM (n = 3); read-out: EeAChE Inhibition, IC50
T3 construct: purchased Sigma-Aldrich type VI-S
Experimental: We selected AChE from electric eels (Electrophorus electricus) for consistency with our other reports and because of its purity, specific activity, and lower cost compared to human AChE [64].
as §4, §3
(§5) PIand donepezil were purchased from Sigma-Aldrich. […] As the source of the enzyme, electric eel (Elecrophorus electricus) AChE (EeAChE, type VI-S, lyophilized powder, Sigma-Aldrich, Saint Louis, MO, USA) was used. The applicability of this enzyme was shown earlier

EeAChE PAS = target: T4, EeAChE PAS (Electrophorus electricus, UniProt O42275); assay: biochemical; type: binding; settings: EeAChE 7 µM, PI 8 µM, means ± SEM (n = 3); for inhibition at 3 µM: compound 3 µM, read-out: PI Displacement, 3 µM; for inhibition at 20 µM: compound 20 µM, read-out: PI Displacement, 20 µM
T4 construct: purchased Sigma-Aldrich type VI-S
Experimental: as §5
To determine the percentage of displacement of PI from the EeAChE PAS, EeAChE (with a final concentration of 7 μM) was incubated with the test compound at a concentration of 3 and 20 μM in 1 mM Tris-HCl buffer pH 8.0, 25 °C for 15 min. Next, PIsolution (with a final concentration of 8 μM) was added, the samples were incubated for 15 min, and the fluorescence spectrum (530 nm (exc.) and 600 nm (emiss.)) was taken. Donepezil and decamethonium were used as reference compounds. The blank contained PI of the same concentration in 1 mM Tris-HCl buffer pH 8.0. The measurements were carried out in triplicate on a FLUOStar Optima microplate reader).
The percentage of displacement of PIfrom the peripheral anionic site of AChE was calculated using the following formula:% Displacement = 100 − (IFAChE+Propidium+inhibitor/IFAChE+Propidium) × 100,(1) where IFAChE+Propidium is the fluorescence intensity of the propidium associated with AChE in the absence of the test compound (taken as 100%) and IFAChE+Propidium+inhibitor is the fluorescence intensity of the propidium associated with AChE in the presence of the test compound.

T4 sequence (O42275 24-633): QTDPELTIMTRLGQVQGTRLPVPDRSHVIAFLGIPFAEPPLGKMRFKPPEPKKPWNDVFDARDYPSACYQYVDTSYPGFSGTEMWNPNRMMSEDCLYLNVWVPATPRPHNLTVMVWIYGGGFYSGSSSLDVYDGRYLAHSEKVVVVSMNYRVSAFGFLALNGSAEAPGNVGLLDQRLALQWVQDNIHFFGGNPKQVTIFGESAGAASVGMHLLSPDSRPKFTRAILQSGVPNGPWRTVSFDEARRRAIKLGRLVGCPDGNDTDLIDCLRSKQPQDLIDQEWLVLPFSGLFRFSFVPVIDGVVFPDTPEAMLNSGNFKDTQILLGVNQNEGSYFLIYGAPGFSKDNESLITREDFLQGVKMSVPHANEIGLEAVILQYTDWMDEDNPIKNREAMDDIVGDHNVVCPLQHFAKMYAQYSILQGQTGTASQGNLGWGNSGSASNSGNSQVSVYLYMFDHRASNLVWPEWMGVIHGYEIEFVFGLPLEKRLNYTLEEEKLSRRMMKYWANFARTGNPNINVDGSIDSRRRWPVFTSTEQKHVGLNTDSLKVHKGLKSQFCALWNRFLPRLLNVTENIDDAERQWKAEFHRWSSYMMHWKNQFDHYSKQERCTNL
T3 sequence (O42275 24-633): as above
T2 sequence (P22303 32-617 isoform P22303-2 limits assumed): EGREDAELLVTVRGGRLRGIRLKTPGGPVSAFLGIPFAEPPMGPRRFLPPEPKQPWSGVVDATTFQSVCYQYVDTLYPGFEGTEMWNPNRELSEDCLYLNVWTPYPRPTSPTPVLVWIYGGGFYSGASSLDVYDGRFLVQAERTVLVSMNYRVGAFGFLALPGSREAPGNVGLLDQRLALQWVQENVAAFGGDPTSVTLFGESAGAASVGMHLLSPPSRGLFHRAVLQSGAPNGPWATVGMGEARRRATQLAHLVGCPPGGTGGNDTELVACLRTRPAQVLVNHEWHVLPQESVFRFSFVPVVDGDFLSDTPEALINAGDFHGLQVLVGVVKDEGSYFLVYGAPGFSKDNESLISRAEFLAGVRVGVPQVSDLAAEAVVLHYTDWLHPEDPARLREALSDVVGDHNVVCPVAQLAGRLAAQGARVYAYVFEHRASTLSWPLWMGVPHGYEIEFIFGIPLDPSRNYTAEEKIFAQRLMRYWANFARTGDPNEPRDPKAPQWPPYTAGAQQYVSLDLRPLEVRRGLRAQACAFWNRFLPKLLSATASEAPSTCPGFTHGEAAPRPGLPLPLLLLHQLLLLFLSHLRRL
T1 sequence (P81908 whole entry): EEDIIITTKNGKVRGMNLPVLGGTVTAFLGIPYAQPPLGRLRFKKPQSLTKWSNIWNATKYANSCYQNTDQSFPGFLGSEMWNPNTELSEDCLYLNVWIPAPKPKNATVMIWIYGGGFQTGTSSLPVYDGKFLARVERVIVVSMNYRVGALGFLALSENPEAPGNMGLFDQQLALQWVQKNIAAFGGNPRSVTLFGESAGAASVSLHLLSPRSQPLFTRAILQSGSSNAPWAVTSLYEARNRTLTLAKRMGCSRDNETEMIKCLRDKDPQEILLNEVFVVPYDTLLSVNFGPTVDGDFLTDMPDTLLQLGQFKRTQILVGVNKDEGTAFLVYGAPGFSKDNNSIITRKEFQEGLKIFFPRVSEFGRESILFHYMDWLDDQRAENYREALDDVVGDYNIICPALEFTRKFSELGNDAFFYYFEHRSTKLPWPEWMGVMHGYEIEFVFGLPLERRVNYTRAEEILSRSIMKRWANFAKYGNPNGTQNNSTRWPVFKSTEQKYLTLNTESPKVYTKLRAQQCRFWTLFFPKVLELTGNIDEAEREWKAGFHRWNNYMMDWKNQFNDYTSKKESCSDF

SMILES: c1ccc2c(c1)[nH]c1ccccc12 [carbazole, reference compound]
- CES inhibition at 20 µM (porcine liver CES): 9.4 ± 1.0%

SMILES: Oc1ccccc1O [Catechol, catechol, reference compound]
- IC50 [1]: 16.7 ± 1.2 µM
- ABTS Scavenging Activity, TEAC Value [1]: 1.20 ± 0.11
- ORAC, TE Value [2]: 6.6 ± 0.2

SMILES: CC1CCc2c(c3cc(C(F)(F)F)ccc3n2CCC(=O)N2c3ccc(N(C)C)cc3Sc3cc(N(C)C)ccc32)C1 (stereo not shown) [Compound 4g]
- IC50 (equine serum BChE): 20.3 ± 0.21 µM
- IC50 (human erythrocyte AChE): 3.56 ± 0.09 µM
- CES inhibition at 20 µM (porcine liver CES): 1.4 ± 0.2%
- IC50 (EeAChE): 800 ± 50 nM
- inhibition at 3 µM (EeAChE PAS): 20.9 ± 1.3%
- inhibition at 20 µM (EeAChE PAS): 32.8 ± 0.7%
- IC50 [1]: 30.8 ± 2.9 µM
- ABTS Scavenging Activity, TEAC Value [1]: 0.70 ± 0.04
- ORAC, TE Value [2]: 6.5 ± 0.1

SMILES: Cc1c(C)c2c(c(C)c1O)CCC(C)(C(=O)O)O2 (stereo not shown) [Trolox, 6-hydroxy-2,5,7,8-tetramethylchroman-2-carboxylic acid, reference compound]
- IC50 [1]: 20.4 ± 1.7 µM
- ABTS Scavenging Activity, TEAC Value [1]: 1.00
- ORAC, TE Value [2]: 1.00

SMILES: CN(C)c1ccc2c(c1)Sc1cc(N(C)C)ccc1N2C(=O)CCn1c2c(c3cc(OC(F)(F)F)ccc31)CCCCC2 [Compound 4l]
- IC50 (equine serum BChE): 42.2 ± 2.93 µM
- IC50 (human erythrocyte AChE): 15 ± 1.12 µM
- CES inhibition at 20 µM (porcine liver CES): 7.6 ± 0.8%
- IC50 (EeAChE): 3400 ± 210 nM
- inhibition at 3 µM (EeAChE PAS): 14.9 ± 0.1%
- inhibition at 20 µM (EeAChE PAS): 17 ± 1.2%
- IC50 [1]: 20.7 ± 1.7 µM
- ABTS Scavenging Activity, TEAC Value [1]: 0.98 ± 0.09
- ORAC, TE Value [2]: 8.4 ± 0.8
